# Measured values published in patent publication US6103709A (priority 1998, dated 2000).
# Experiments:
# [1] = system: rapid responses (VDRmem); experiment: Antagonist function (summary classification); settings: Yes/No, Tables 1 and 6
# Source text: (§1) Table 6 identifies biological properties, such as genomic response, rapid response, agonist or antagonist function, binding of the analog to the vitamin binding protein (expressed as RCI), binding to the nuclear 1α,25(OH)2 D3 receptor (expressed as RCI) rapid response (expressed as % transcaltachia the rapid hormonal stimulation of intestinal calcium absorption) the classic vitamin D responses such as intestinal Ca^2+ absorption (ICA) and bone Ca^2+ mobilizing activity (BCM) determined in vivo in a vitamin D-deficient chick, and cell differentiation (expressed as % ED50), an assessment of the ability to promote the nuclear response of cell differentiation.
# [2] = system: vitamin D-deficient chick; experiment: Intestinal Ca2+ absorption (ICA) in vitamin D-deficient chick; assay type: in vivo; settings: i.m.; for Classic Vit D Responses ICA: relative to 100 pmol 1α,25(OH)2 D3 = 100%, 12 h before assay
# Description: A primary fundamental physiological property of vitamin D and particularly 1α,25(OH)2 D3 is its ability to stimulate the intestinal absorption of calcium and facilitate the availability of dietary calcium to the organism. Intestinal absorption of the calcium is measured by the intestinal calcium absorption (ICA) assay, developed in the model of vitamin-D deficient chicks. The ICA assay was used to determine the relative capability of the tested analog to stimulate intestinal Ca^2+ absorption.
# (§2) Results of the testing of the analogs of the invention in vivo by the ICA and IBM assays are shown in FIG. 9 which illustrates the capability of analogs LO, EV and HR to stimulate intestinal Ca^2+ absorption (ICA) and bone Ca^2+ mobilizing activity (BCM). In this study, the analogs of 1α,25(OH) were given i.m. to vitamin D-deficient chicks 12 hours before the assay began. The activity produced by 100 pmol of 1α,25(OH)2 D3 was set to be 100% for both ICA and BCM. The dose of the analogs required to achieve a biological response for either ICA or BCM equivalent to the 100 pmol dose of 1α,25(OH)2 D3 was calculated and converted to a percentage. Results are expressed as mean +SE of groups of seven chicks. Each assay included a negative control (-D), that is no vitamin D was present, and a positive control, where vitamin D3 (+D3) was present in 3.25 nmol. […] 1α,25(OH)2 D3 and analogs LO [14α,15α-methano-1α,25(OH)2 D3 ], EV [22-(m(dimethylhydroxymethyl)phenyl)-23,24,25,26,27-pentanor-1α-OH-D3 ] and HR [(22R)-1,25(OH)2 -22,23-diene-D3 ] were administered in 0.0065, 0.065, 0.65 and 6.5 nmol as shown.
# (§3) In Vivo Assays of Intestinal Calcium Absorption and Bone Calcium Mobilization
# (§4) This example describes assays used for determination of analogs biological activity in intestinal calcium absorption (ICA) and bone calcium mobilization (BCM) assays.
# (§5) ICA and BCM were measured in vivo in the vitamin D-deficient chick model system according to Biochem. Pharmacol., 18: 2347 (1969).
# (§6) Twelve hours before assay, the chickens, which had been placed on a zero-calcium diet 48 h before assay, were injected intramuscularly with the vitamin metabolite 1α,25(OH)2 D3 or analog (1-10,000 pmoles) dissolved in 0.1 mL of ethanol/1,2-propanediol (1:1, v/v). At the time of assay, 4.0 mg of ^40 Ca^2+ +5 μCi of ^45 Ca^2+ (New England Nuclear) were placed in the duodenum of the birds lightly anesthetized with ether. After 30 min, the birds were decapitated and the blood was collected.
# The radioactivity content, which is a measure of ICA, of 0.2 mL of serum was measured in a liquid scintillation counter (Beckman LS8000) to determine the amount of ^45 Ca^2+ absorbed.
# [3] = system: vitamin D-deficient chick; experiment: Bone Ca2+ mobilizing activity (BCM) in vitamin D-deficient chick; assay type: in vivo; settings: i.m.; for Classic Vit D Responses BCM: relative to 100 pmol 1α,25(OH)2 D3 = 100%, 12 h before assay
# Description: The bone calcium mobilizing (BCM) assay is also conducted in the vitamin D-deficient chick. The BCM assay determines the relative ability of the tested analog to mobilize bone calcium. The natural hormone 1α,25(OH)2 D3 is very potent in the BCM assay. For example, when 1α,25(OH)2 D3 in inappropriate amounts are used as a drug in human patients, the patient may become hypercalcemic and eventually hypercalciuria with nephrolithiasis and renal failure may develop. The BCM assay was used to determine the relative activity of the analogs of the invention to stimulate bone Ca^2+ mobilization.
# as §2, §3, §4, §5, §6
# BCM activity was estimated from the increase of total serum calcium concentration, as determined by atomic absorption spectrophotometry.
# [4] = system: VDRnuc; experiment: Genomic response (summary classification); settings: Yes/No, Tables 1 and 6
# Source text: as §1
# [5] = system: VDRmem; experiment: Rapid response (summary classification); settings: Yes/No, Tables 1 and 6
# Source text: as §1
# [6] = target: T1, nuclear receptor for 1α,25(OH)2 D3 [VDRnuc] (Gallus gallus, UniProt O42392); experiment: Relative Competitive Index (steroid competition) assay, nuclear receptor VDRnuc; assay type: binding, chick; set-up: key to Nuclear 1α,25-D Receptor (RCI): % relative to 1α,25(OH)2D3 binding (RCI = 100%); settings: RCI of 1α,25(OH)2 D3 = 100
# T1 construct: VDRnuc receptor preparation from chick intestine mucosa; from tissue; host or cells: chick intestinal mucosa
# T1 sequence (O42392 1-451): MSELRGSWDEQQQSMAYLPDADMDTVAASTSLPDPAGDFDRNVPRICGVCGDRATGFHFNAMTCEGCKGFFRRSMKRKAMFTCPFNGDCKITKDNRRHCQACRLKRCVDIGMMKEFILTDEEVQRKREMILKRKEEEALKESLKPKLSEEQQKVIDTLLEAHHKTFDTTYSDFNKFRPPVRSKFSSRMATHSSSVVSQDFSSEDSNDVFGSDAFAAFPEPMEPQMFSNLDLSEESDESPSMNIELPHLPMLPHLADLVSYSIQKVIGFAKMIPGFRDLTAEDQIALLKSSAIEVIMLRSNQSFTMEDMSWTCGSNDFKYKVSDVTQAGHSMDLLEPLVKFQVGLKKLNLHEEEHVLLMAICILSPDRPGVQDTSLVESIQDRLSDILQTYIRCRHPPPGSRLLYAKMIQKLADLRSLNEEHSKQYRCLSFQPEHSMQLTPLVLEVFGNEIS
# Description: The ability of analogs to mediate genomic responses are directly determined by the ability of the analog in question to bind to the nuclear receptor for 1α,25(OH)2 D3 [VDRnuc ]. This ability is detected by the assay measuring Relative Competitive Index (RCI).
# The assay is based upon the principles of a steroid competition assay. A fixed amount of [^3 H]1α,25(OH)2 D3 is mixed with increasing amounts of competitive analogs or the natural hormone, 1α,25(OH)2 D3, and incubated with a VDRnuc receptor preparation from chick intestine mucosa.
# Ligand Receptor Competition Assay
# This example describes a ligand receptor competitive assay used for determination of an analog's relative ability to bind to VDRnuc expressed as relative competitive index (RCI).
# The relative affinity of nonradioactive 1α,25(OH)2 D3 and each analog to compete with [^3 H]1α,25(OH)2 D3 for binding to the VDRnuc of NB4 cells was carried out in vitro. The NB4 cells were collected from a fast growing stage and the cellular VDRnuc of 1α,25(OH)2 D3 were extracted from KTED buffer containing 10 mM Tris-HCl, pH 7.4, 300 mM KCl, 1 mM EDTA and 5 mM DTT. After sonication, the cell extract was further centrifuged at 500× g for 10 min. The supernatant was collected for use in a ligand-receptor binding assay.
# In this assay, increasing concentrations (10^-10 to 10^-6 M) of nonradioactive 1α,25(OH)2 D3 or the tested analogs were incubated with NB4 cell extracts in the presence of a fixed saturating amount of 1 pmole of [^3 H]1α,25(OH)2 D3. The reciprocal of the percentage of maximal binding of [^3 H]1α,25(OH)2 D3 was then calculated and plotted as a function of the relative analog concentration versus [^3 H]1α,25(OH)2 D3. […] The competitive index value for each analog is then normalized to the competitive index value of the […], thereby generating the value of Relative Competitive Index (RCI) where the RCI for 1α,25(OH)2 D3 is defined as 100%.
# The full description of the assay is found in Methods in Enzymology: Vitamins and Co-Enzymes, Vol. 67, 494-500 , Academic Press, NY(1980); Biochem. Biophys. Res. Commun., 91: 827-834 (1979); and Endocrinology, 139(2): 457-465 (1998).
# [7] = target: T2, human vitamin D-binding protein (hDBP) (Homo sapiens, UniProt P02774); experiment: Relative Competitive Index assay, vitamin D-binding protein; settings: RCI of 1α,25(OH)2 D3 set to 100; 4° C., pH 7.4
# T2 sequence (P02774 17-474): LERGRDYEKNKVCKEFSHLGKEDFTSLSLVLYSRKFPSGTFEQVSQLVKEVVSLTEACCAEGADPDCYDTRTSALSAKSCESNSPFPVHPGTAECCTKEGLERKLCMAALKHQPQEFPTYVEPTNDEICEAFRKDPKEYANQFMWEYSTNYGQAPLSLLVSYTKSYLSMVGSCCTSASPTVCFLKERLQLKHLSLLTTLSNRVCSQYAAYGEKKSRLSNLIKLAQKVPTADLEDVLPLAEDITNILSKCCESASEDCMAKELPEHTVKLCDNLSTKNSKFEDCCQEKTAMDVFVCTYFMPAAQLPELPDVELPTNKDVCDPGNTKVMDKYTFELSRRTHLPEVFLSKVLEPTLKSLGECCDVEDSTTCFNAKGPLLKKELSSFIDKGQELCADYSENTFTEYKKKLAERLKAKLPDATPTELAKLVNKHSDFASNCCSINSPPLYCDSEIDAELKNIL
# Source text: The compared analogs are 14α,15α-methano-1α,25(OH)2 D3 (LO), 22(m(dimethylhydroxymethyl)phenyl)-23,24,25,26,27-pentanor-1α- OH-D3 (EV) and (22R)-1,25(OH)2 -22,23,diene-D3 (HR), all conformationally flexible genomic agonists. By definition the RCI for 1α,25(OH)2 D3 is set to 100%. The data seen in FIG. 7 represent the mean of three determinations.
# Vitamin D-Binding Protein Assay Relative Competitive Index
# This example describes a Relative Competitive Index Assay used for determination of analogs binding affinity to vitamin D-binding protein.
# Phase separation was then obtained by the addition of 0.5 ml of cold dextran-coated charcoal.
# The data was plotted as [competitor]/[[^3 H]25(OH)D3 ] vs. 1/[fraction bound]. The RCI was calculated as [slope of competitor]/[slopefor 25(OH)D3 ]×100. Results are seen in FIG. 7. Although each analog was assayed in competition with [^3 H]25(OH)D3, the data are expressed as relative to the binding of 1α,25(OH)2 D3, with its RCI set to 100.
Compound,Antagonist [1],Classic Vit D Responses ICA [2],Classic Vit D Responses BCM [3],Genomic Response [4],Rapid Response [5],"Nuclear 1α,25-D Receptor (RCI) [6]",Vit D Binding Protein (RCI) [7],ICA (in words) ([2]; vitamin D-deficient chick),BCM (in words) ([3]; vitamin D-deficient chick)
C=C1/C(=C/C=C2/CCC[C@]3(C)[C@@H]([C@H](C)CCCC(C)(C)O)CC[C@@H]23)C[C@@H](O)C[C@@H]1O [JS],No,< 0.02%,< 0.02%,Yes,Yes,–,–,–,–
C=C1/C(=C\C=C2/CCC[C@]3(C)[C@@H]([C@H](C)C#Cc4cccc(C(C)(C)O)c4)CC[C@@H]23)C[C@@H](O)C[C@@H]1O [IB],No,–,–,Yes,Yes,1,–,–,–
"C=C1CC[C@H](O)C/C1=C/C=C1\CCC[C@]2(C)[C@@H]([C@H](C)CCCC(C)(C)O)CC[C@@H]12 [25(OH)D3, 25-hydroxyvitamin D3, reference compound]",–,–,–,–,–,–,"66,700",–,–
C=C1/C(=C\C=C2/CCC[C@@]3(C)[C@@H]2CC[C@@H]3[C@H](C)CCCC(C)(C)O)C[C@@H](O)C[C@@H]1O [GE],No,0.5%,< 0.1%,Yes,Yes,–,–,–,–
C=C1/C(=C\C=C2/CCC[C@]3(C)[C@@H]([C@H](C)CCCC(C)(C)O)CC[C@@H]23)C[C@H](O)C[C@@H]1O [HJ],No,2.8%,1.5%,Yes,Yes,–,–,–,–
C=C1/C(=C\C=C2/CCC[C@]3(C)[C@@H]([C@H](C)CCCC(C)(C)O)CC[C@@H]23)C[C@H](O)C[C@H]1O [HH],Yes,–,–,No,No,–,–,–,–
"C=C1CC[C@H](O)C/C1=C/C=C1\CCC[C@]2(C)[C@@H]([C@H](C)CCCC(C)C)CC[C@@H]12 [vitamin D3, 9,10-secocholesta-5,7,10(19)-trien-3β-ol, reference compound]",–,–,–,–,–,–,–,significant at P<0.01,significant at P<0.01
C=C1/C(=C\C=C2\CCC[C@]3(C)[C@@H]([C@H](C)CCCC(C)(C)O)CC[C@@H]23)C[C@@H](O)C[C@@H]1O [JR],No,0.03%,0.02%,Yes,Yes,–,–,–,–
